The source of these data is PMC11180795 (Frontiers in Pharmacology, 2024).

Some results are limits rather than exact numbers.

What all share (format): cell-based, Murine
Series [1] in a line: Cytotoxicity MTT assay on RAW 264.7 cells. Particulars: mouse, RAW 264.7 macrophage cells, 48 h incubation, read-out: IC50, cytotoxic effect on RAW264.7 cells. On the procedure: Murine macrophage RAW 264.7 cell line obtained from the American Type Culture Collection (Rockville, MD, United States) was maintained in DMEM supplemented with 10% fetal calf serum (FCS) and 1% penicillin/streptomycin/fungizone (PSF) under standard cell culture conditions at 37°C and 5% CO2 in a humidified environment.
The cytotoxic effect of compounds on RAW 264.7 cells was assessed using the 3-(4, 5-dimethylthiazol-2-yl)-2, 5-diphenyl tetrazolium bromide (MTT) assay as established by Mosmann ([Mosmann, 1983]) with slight modifications. Briefly, cells were seeded at a density of 1 × 10^5 cells/mL (100 µL) in 96-well microtitre plates and incubated at 37°C and 5% CO2 in a humidified environment. After 24 h incubation, 100 µL of compounds (at concentration ranged from to 250 μM–1.95 µM) were added to the wells containing cells and further incubated for 48 h in a CO2 incubator. A suitable control (untreated cells) was included and doxorubicin was used as a positive reference. Thereafter, the medium in each well was aspirated from the cells, which were then washed with PBS, and finally fresh medium (200 µL) was added to each well. Then, 30 µL of MTT (5 mg/mL in PBS) was added to each well and the plates were incubated at 37°C for 4 h. The medium was aspirated from the wells and DMSO was added to solubilize the formed formazan crystals. The absorbance was read at 570 nm (SpectraMax 190, Molecular devices). The percentage of cell inhibition was calculated with reference to the control (untreated cells taken as 100% viability). Then, the IC50 values of plant compounds showing more than 50% cell growth inhibition were calculated by plotting the percentage inhibition against the concentration.

Series [2] addresses T1, COX-2 (Mus musculus, UniProt Q05769).
T1 construct: The cell lysate was centrifuged at 12000 x g for 3 min and the supernatant was collected for COX activity assay; endogenous in cells
T1 sequence (Q05769 18-604): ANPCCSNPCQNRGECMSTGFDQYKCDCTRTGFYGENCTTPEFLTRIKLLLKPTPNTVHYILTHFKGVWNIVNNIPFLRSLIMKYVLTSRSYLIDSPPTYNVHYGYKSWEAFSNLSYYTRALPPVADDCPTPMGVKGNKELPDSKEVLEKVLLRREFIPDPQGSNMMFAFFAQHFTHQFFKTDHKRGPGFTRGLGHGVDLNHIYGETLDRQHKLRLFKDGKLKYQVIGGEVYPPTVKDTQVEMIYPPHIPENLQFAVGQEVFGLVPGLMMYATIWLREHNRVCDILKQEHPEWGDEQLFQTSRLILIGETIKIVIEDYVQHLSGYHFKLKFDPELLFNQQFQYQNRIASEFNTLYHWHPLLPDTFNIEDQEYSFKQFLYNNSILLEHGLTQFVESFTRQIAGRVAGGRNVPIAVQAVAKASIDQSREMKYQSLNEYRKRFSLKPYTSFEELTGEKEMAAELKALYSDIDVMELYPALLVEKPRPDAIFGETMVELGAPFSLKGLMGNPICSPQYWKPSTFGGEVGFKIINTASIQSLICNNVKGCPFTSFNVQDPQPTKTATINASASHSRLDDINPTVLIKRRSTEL
The experiment in a line: Fluorometric COX activity assay in lysate of LPS-treated Raw 264.7 cells, COX-2. The following applies: compound at 20 µM, LPS 0.1 μg/mL, 24 h; untreated control 99.85 µU/mg. On the procedure: The fluorometric cyclooxygenase activity assay kit (Biovision) was used to evaluate the activity of COX-1 and COX-2 enzymes. Raw 264.7 cells were seeded at 2 × 10^5 cells/mL in a 48-well microplate, and allowed to adhere for 24 h, then treated with LPS 0.1 μg/mL and compounds (1), (5) and (6) at 20 µM against Raw 264.7 cells. After 24 h the cyclooxygenase enzyme (COX-1 and COX-2) activity assay was performed. Cells were detached with TNE buffer (Tris 40 mM, NaCl 150 mM, EDTA 1 mM) and washed with PBS (1x), then re-suspended in 1 mL PBS (1x), transferred into 1.5 mL tube, and centrifuged at 500 x g for 3 min. The pellet was then re-suspended in 0.5 mL of lysis buffer with a protease inhibitor cocktail, vortexed, and incubated at 4°C for 5 min. The cell lysate was centrifuged at 12000 x g for 3 min and the supernatant was collected for COX activity assay. The COX activity was assessed using the fluorometric cyclooxygenase activity assay kit (Biovision) following the manufacturer’s instructions. The assay includes COX-1 and COX-2 specific inhibitors to differentiate the activity of COX-1 and COX-2 as well as other peroxidases. Indomethacin (10 µM) was used as a standard drug and appropriate controls were also included.

Series [3] deals with IFN-γ. The series is described as follows: Th1/Th2 cytokine measurement (Cytometric Bead Array) in LPS-stimulated Raw 264.7 cells, IFN-γ. The following applies: compound at 20 µM; for effect on IFN-γ production (in words): vs stimulated and untreated control. On the procedure:
(§1) Raw 264.7 cells were seeded at 2 × 10^5 cells/mL in a 48-well microplate and allowed to adhere for 24 h, then treated with LPS 0.1 μg/mL and with compounds (1), (5) and (6) at 20 µM. Untreated cells and indomethacin (10 µM) were used as controls. After 24 h of incubation, the supernatant was collected and the amount of pro-inflammatory Th1 cytokines (IFN-γ, TNF-α, and IL-2) and anti-inflammatory Th2 cytokines (IL-4, IL-6, and IL-10) released measured. The experiment was performed according to the manufacturer’s instructions using BD™ Cytometric Bead Array (CBA) […] Th1/Th2 Cytokine Kit (BD-Biosciences), and data were acquired on a BD LSR Fortessa™ cell analyzer flow cytometer.

Series [4] concerns TNF-α. The series is described as follows: Th1/Th2 cytokine measurement (Cytometric Bead Array) in LPS-stimulated Raw 264.7 cells, TNF-α. The following applies: compound at 20 µM; for effect on TNF-α production (in words): vs stimulated and untreated control. On the procedure: as §1
In series [5] the test system is IL-4. The experiment in a line: Th1/Th2 cytokine measurement (Cytometric Bead Array) in LPS-stimulated Raw 264.7 cells, IL-4. The following applies: compound at 20 µM, LPS 0.1 μg/mL, 24 h; stimulated untreated control 1.01 pg/mL. On the procedure: as §1
Series [6] concerns IL-10. The series is described as follows: Th1/Th2 cytokine measurement (Cytometric Bead Array) in LPS-stimulated Raw 264.7 cells, IL-10. Particulars: compound at 20 µM, LPS 0.1 μg/mL, 24 h; stimulated untreated control 0.88 pg/mL. The protocol:
as §1

Take `CC(C)=CCc1c2c(c3oc4c(O)cccc4c(=O)c3c1O)C=CC(C)(C)O2` [Compound 1, Ananixanthone]: the half-inhibitory concentration (IC50) at 48 h in series [1] is over 100 µM. In series [2], the COX-2 activity stood at 59.33 µU/mg. The compound further registered an IFN-γ level in series [3] (LPS 0.1 μg/mL, 24 h, stimulated untreated control 0.84 pg/mL) of 0.43 pg/mL. In series [4] (LPS 0.1 μg/mL, 24 h, stimulated untreated control 4356.86 pg/mL), this compound yielded a TNF-α level of 3854.61 pg/mL. The compound also gave an IL-4 level in series [5] of 1.23 pg/mL. In addition, in series [6], the IL-10 level was 0.971 pg/mL.
On to `CC(C)=CCC/C(C)=C/C[C@]12C[C@@H](CC=C(C)C)C(C)(C)[C@](C/C=C(\C)CCC=C(C)C)(C(=O)C(C(=O)c3ccc(O)c(O)c3)=C1O)C2=O` [Compound 5, Guttiferone O], for which, in series [1], the IC50 at 48 h is 64.5 µM. For the same compound, in series [2], the COX-2 activity was found to be 88.10 µU/mg. Besides, the “effect on IFN-γ production (in words)” value in series [3] was “significantly reduces”. Also, the “effect on TNF-α production (in words)” value in series [4] was “significantly reduces”. The compound also registered an IL-4 level in series [5] of 2.25 pg/mL. The compound further had an IL-10 level in series [6] of 2.05 pg/mL.
Take `CC(C)=CCC/C(C)=C/C[C@]12C[C@@H](CC=C(C)C)C(C)(C)[C@](CC=C(C)C)(C(=O)C(C(=O)c3ccc(O)c(O)c3)=C1O)C2=O` [Compound 6, Guttiferone M]: in series [1], the IC50 at 48 h was found to be 61.2 µM. For the same compound, in series [2], the COX-2 activity is 43.84 µU/mg. Further, the “effect on IFN-γ production (in words)” value in series [3] is reported as “moderate decrease”. Also, the “effect on TNF-α production (in words)” value in series [4] is on record as “moderate decrease”. The compound also came in with an IL-4 level in series [5] of 0.94 pg/mL. In series [6], the IL-10 level turned out to be 1.77 pg/mL.
